Experimental findings from PubChem BioAssay AID588447 (Southern Research Specialized Biocontainment Screening …, 2011) are described below.

For assay [1], the system named is Mycobacterium tuberculosis H37Rv growth, 7H9 media. The experiment in a line: Mycobacterium tuberculosis growth inhibition, dose response, 7H9 media, purified and synthesized compounds, set 8 (AID 588447). The conditions noted are these: for IC50: measured here: IC50 growth inhibition replicates.
Assay in assay [2]: as above
The conditions noted are these: Mycobacterium tuberculosis H37Rv growth, 7H9 media.

Structures are written as SMILES. Several values for one entry are separate records, joined by “and”; a condition that tells them apart may be missing. Equal entries are not always repeated. Activity calls are given as the source filed them. The rule behind the calls is not given here.

In general, IC90 refers to the concentration at which the effect reaches the 90% level. What is called IC50 is the concentration needed to halve the response being measured. As for `O=C(c1ccc(CNc2c(N3CCCC3)c(=O)c2=O)cc1)N1CC=C(c2ccccc2)CC1`, in assay [1], the IC90 is 25.3 µM; the IC50 was 7.68 µM and 4.36 µM.

For `CC1CCCN(C(=O)C2CCC(CNc3c(N4CCCCC4)c(=O)c3=O)CC2)C1` (centres undefined), the IC50 in assay [1] was 39.8 µM.

For `Cc1cccc(N2CCN(C(=O)c3ccc(CNc4c(N5CCC(C)CC5)c(=O)c4=O)cc3)CC2C)c1` (centres undefined), the IC50 in assay [1] stood at 63.7 µM.

`CC1CC(C)CN(C(=O)c2ccc(CNc3c(N4CCCC4)c(=O)c3=O)cc2)C1` (centres undefined) came in with an IC50 in assay [1] of 12.4 µM.

In the case of `CC(C)OC(=O)CSc1ncnc2c1cnn2-c1ccccc1`, the IC50 in assay [1] was found to be 34.1 µM.

`O=C(C1CCC(CNc2c(N3CCCCC3)c(=O)c2=O)CC1)N1CCCCC1` (centres undefined) came in with an IC50 in assay [1] of 30.8 µM.

As to `CCOc1ccc(NC(=O)c2ccc(CNc3c(N4CCCC4)c(=O)c3=O)cc2)cc1`, in assay [2] (at 100 µM (top of the series)), the growth inhibition is -0.71% (inactive).

For the compound `CC(=O)c1ccc(NC(=O)c2ccc(CNc3c(N4CCOCC4)c(=O)c3=O)cc2)cc1`, the IC50 in assay [1] was found to be 75.7 µM.

Consider `COc1ccc(N2CCN(C(=O)c3ccc(CNc4c(N5CCOCC5)c(=O)c4=O)cc3)CC2)cc1`, for which the IC50 in assay [1] is 10.7 µM and 9.56 µM.

Regarding `CCC(C)NC(=O)CSc1nc2ccccc2c(=O)[nH]1` (centres undefined), in assay [1], the IC90 was 8.3 µM and the IC50 is 5.98 µM.

For the compound `CCOC(=O)CSc1ncnc2c1cnn2-c1ccc(C)cc1C`, in assay [1], the IC90 was 5.85 µM and the IC50 is 4.29 µM.

As for `O=C(NCCc1ccc(Cl)cc1)C1CCC(CNc2c(N3CCCCC3)c(=O)c2=O)CC1` (centres undefined), the IC50 in assay [1] was determined as 56.3 µM.

Consider `O=C(c1ccc(CNc2c(N3CCCC3)c(=O)c2=O)cc1)N1CCc2ccccc2C1`, for which, in assay [1], the IC50 stood at 7.01 µM.

Consider `O=C(NCCc1ccc(Cl)cc1)c1ccc(CNc2c(N3CCOCC3)c(=O)c2=O)cc1`, for which the concentration for half-maximal inhibition (IC50) in assay [1] is 8.33 µM and 7.05 µM.

Consider `CCOC(=O)N1CCC(Nc2c(Nc3cccc(CC)c3)c(=O)c2=O)CC1`, for which, in assay [1], the concentration for an effect of 90% (IC90) was 87.5 µM and the IC50 is 61.5 µM.

As for `CC1CCN(C(=O)c2ccc(CNc3c(N4CCCC4)c(=O)c3=O)cc2)CC1`, in assay [1], the IC50 is 9.07 µM.

In the case of `COC(=O)CSc1ncnc2c1cnn2-c1ccc(C)cc1C`, in assay [1], the 90% effect concentration (IC90) was 5.94 µM and the IC50 stood at 4.77 µM.

Regarding `CCOC(=O)CSc1ncnc2c1cnn2-c1ccccc1`, in assay [1], the half-inhibitory concentration (IC50) stood at 26.8 µM.

For the compound `O=C(c1ccc(CNc2c(N3CCOCC3)c(=O)c2=O)cc1)N1CC=C(c2ccccc2)CC1`, in assay [1], the IC90 was 7.8 µM and the IC50 is 2.54 µM.

On to `CC1CCCN(C(=O)c2ccc(CNc3c(N4CCCCC4)c(=O)c3=O)cc2)C1` (centres undefined), for which, in assay [1], the IC50 was found to be 7 µM.

Regarding `Cc1cccc(N2CCN(C(=O)c3ccc(CNc4c(N5CCC(C)CC5)c(=O)c4=O)cc3)CC2)c1C`, the growth inhibition in assay [2] (at 75 µM (top of the series)) is 15.6% (inactive). The IC50 in assay [1] was 24.6 µM.

Consider `CC1CC(C)CN(C(=O)C2CCC(CNc3c(N4CCCCC4)c(=O)c3=O)CC2)C1` (centres undefined), for which the IC50 in assay [1] is 19.9 µM and 26.3 µM.
